Measurements from patent US12668646B2, “Cross-linking compounds and methods of use thereof” (North Carolina State University, priority 2019, dated 2026).
Values joined by “and” are separate entries in the source; they are usually repeats but may differ in a detail not shown here. Identical values can stand only once.

Tests used:
[1] = tested on: tritosomes; experiment: Indigoid dye formation with tritosomes; format: biochemical
Description: The results from the glucosidase survey prompted several further experiments. First, a parallel set of studies was carried out with inclusion of several oxidants commonly employed in histochemical studies, given that the indigoid dye forming process requires the presence of an oxidant. […] The activity of the β-glucosidase was affected only slightly in the presence of a non-ionic detergent. To verify that the results observed in Table 1 were reliable, a 5-mg scale reaction of 33 was carried out to isolate indigo 43, which was obtained in 66% yield (Scheme 7). The 66% isolated yield corresponded well with the enzymatic yield of […] (Table 1, entry 15).
General methods. β-Glucosidase from almonds (lyophilized powder, ≥2 units/mg solid) and peroxidase from horseradish were purchased from Sigma-Aldrich. β-Glucosidase from Agrobacterium sp. (recombinant, suspension in 3.2 M (NH4)2SO4) was purchased from Megazyme; the concentration in solution was determined by absorption spectroscopy with E^0.1%=2.20 cm^−1 at 280 nm.^37 Tritosomes were purchased from XenoTech. Rat liver homogenate was purchased from MP Biomedicals.

[2] = tested on: β-glucosidase from almonds; experiment: Indigogenic reaction with β-glucosidase from almonds; format: biochemical
[3] = tested on: rat liver homogenate; experiment: Indigoid-dye formation in rat liver homogenate; format: biochemical; conditions: as E7 but ϵ = 2.6 × 10^4 M^−1 cm^−1 measured for 43
Description: Finally, indigoid-dye formation was carried out in rat liver homogenate (Table 1, rightmost column).
Reactions in rat liver homogenate. An indoxyl compound in DMF (5 μL, 20 mM) was mixed with rat liver homogenate (95 μL). The reaction mixture was incubated at 37° C. for 24 h. After allowing to cool to room temperature, the reaction mixture was diluted with DMF (900 μL). The mixture was heated at 70° C. for 2 min and then centrifuged for 2 min. The supernatant was separated from any precipitate. This extraction procedure was repeated two or three times with DMF (100-500 μL). The combined supernatant (1500-1800 μL) was analyzed by absorption spectroscopy.

[4] = target: T1, β-glucosidase from Agrobacterium (Agrobacterium sp., UniProt P12614); experiment: Indigogenic reaction with β-glucosidase from Agrobacterium; format: biochemical; conditions: for Yield of indigoid dye: 33 100 μM, enzyme 200 nM; for Yield (%) β-glucosidase from Agrobacterium: as E4 but ϵ = 2.6 × 10^4 M^−1 cm^−1 measured for 43
T1 construct: purchased Megazyme
T1 sequence (P12614 1-459): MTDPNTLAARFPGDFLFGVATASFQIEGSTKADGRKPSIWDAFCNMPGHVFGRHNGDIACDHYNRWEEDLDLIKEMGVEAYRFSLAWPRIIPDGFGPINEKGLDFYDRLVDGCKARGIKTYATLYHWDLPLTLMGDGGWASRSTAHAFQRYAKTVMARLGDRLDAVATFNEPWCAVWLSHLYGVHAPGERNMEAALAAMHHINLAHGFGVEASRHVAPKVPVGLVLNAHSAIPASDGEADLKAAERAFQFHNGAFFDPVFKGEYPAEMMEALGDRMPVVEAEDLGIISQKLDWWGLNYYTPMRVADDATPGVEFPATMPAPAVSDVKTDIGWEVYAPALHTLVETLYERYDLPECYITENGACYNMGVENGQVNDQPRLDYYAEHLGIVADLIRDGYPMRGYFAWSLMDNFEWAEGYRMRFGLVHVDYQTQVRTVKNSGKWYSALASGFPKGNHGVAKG
Description: Next, the β-glucosidase from Agrobacterium sp. was investigated as the trigger enzyme for indigoid dye formation. […] The reaction was carried out using the enzyme (200 nM) and indoxyl-glucoside 33 (100 μM) in phosphate buffer (pH 4-9, containing 2% DMF) at 37° C. […] Note that with 200 nM enzyme and 100 μM substrate, complete reaction requires 500 turnovers of each enzyme.
Reactions with β-glucosidase from Agrobacterium. An indoxyl compound in DMF (2 μL, 5 mM) and β-glucosidase from Agrobacterium in 10 mM phosphate buffer [2 μL, 10 μM, pH 7.0, containing 50 mM NaCl and 0.6 M (NH4)2SO4] were mixed with 50 mM phosphate buffer (96 μL, pH 7.0). The reaction mixture was incubated at 37° C. for 2 h and then centrifuged for 3 min. Any precipitate was separated from the supernatant and dissolved in DMF (200 μL). The resulting solution was analyzed by absorption spectroscopy. The experiment was repeated three times.

[5] = target: T2, β-glucosidase from Agrobacterium plus rat liver homogenate (Agrobacterium sp., UniProt P12614); experiment: Reaction with β-glucosidase from Agrobacterium in rat liver homogenate; format: biochemical; conditions: 33 100 μM, enzyme 200 nM, 2% DMF, 37° C., 4 h; ϵ = 2.6 × 10^4 M^−1 cm^−1
T2 construct: purchased Megazyme
T2 sequence (P12614 1-459): T1 sequence (P12614 1-459)
Description: Finally, indigoid-dye formation was carried out in rat liver homogenate (Table 1, rightmost column). Good yields were obtained in the case of 42 (65%, entry 4) and 27 (50%, entry 13). […] However, when β-glucosidase from Agrobacterium (200 nM) was present in rat liver homogenate, the indigoid dye was obtained in 81% yield (entry 15).
Reaction of 33 with β-glucosidase from Agrobacterium in rat liver homogenate. A DMF solution of 33 (2 μL, 5 mM) and β-glucosidase from Agrobacterium in 10 mM phosphate buffer [2 μL, 10 μM, pH 7.0, containing 50 mM NaCl and 0.6 M (NH4)2SO4] were mixed with rat liver homogenate (96 μL). The reaction mixture was incubated at 37° C. for 4 h and then centrifuged for 3 min. Any precipitate was separated from the supernatant and then suspended in DMF (200 μL). The suspension was centrifuged for 3 min. The supernatant was analyzed by absorption spectroscopy.

[6] = Solubility in aqueous buffer; format: physicochemical; conditions: 100 mM phosphate buffer (pH 7.4, containing 100 mM NaCl), room temperature
From the text: Water solubility of the indoxyl glucoside is important for biological applications. […] Therefore, this compound is not suitable for bioconjugation. The synthesis of 34 relies on successive substitution of the dichloroanilinotriazine unit (derived from N,N-bis(2-methoxyethyl)aniline^31 and cyanuric chloride) with indoxyl-glucoside-PEG-OH and BCN-PEG-NH2 building blocks.
To improve the water solubility of the indoxyl species, a sulfobetaine unit^32,33 was incorporated as a water-solubilizing group. Sulfobetaines are stable zwitterions over a wide range of pH. Synthesis of an indoxyl bearing a sulfobetaine unit is illustrated in Scheme 6. Boc-piperazine (35) was treated with 1,3-propane sultone to afford 36 in 63% yield. Quaternization of the tertiary nitrogen atom in 36 with 3-bromopropanol gave Boc-protected sulfobetaine 37 in 69% yield. The Boc group was cleaved with trifluoroacetic acid (TFA) to afford piperazine-TFA salt 38 in 97% yield. The N-acetyl group of 32 was selectively deprotected with NaHCO3/MeOH in 84% yield. The product 39, piperazine-TFA salt 38, and BCN-amine 14 were assembled at a triazine ring via one-flask, successive substitution of cyanuric chloride to afford 40 in 51% yield. Cleavage of the acetyl groups of sulfobetaine 40 provided 41 in 98% yield.

[7] = tested on: β-glucosidase; experiment: Treatment of F-9 with β-glucosidase; format: biochemical; conditions: result in words
Description: Triazine-based A2BC architectures. Cyanuric chloride (F-8) was treated with 2 equiv of F-7 followed by tyramine to afford F-9 in 56% yield (Scheme 17). […] Treatment of N-(6-hydroxyhexyl)maleimide (F-10) (K. A. Keller, et al., Tetrahedron Lett., 2005, 46, 1181-1184. “A Thermally-Cleavable Linker for Solid-Phase Synthesis”) with cyanuric chloride (F-8) followed by F-9 in the presence of bases gave F-11 in 77% yield. […] While F-9 and F-11 were attractive from a synthetic standpoint given the ability to derivatize the 5-hydroxy group of the indoxyl unit without protection of the four hydroxy groups of the glucosyl unit, the reaction with a β-glucosidase was sine qua non in the molecular design. Accordingly, we moved to the design of a more suitable architecture.

Q: Which results are given for `COc1nc(Oc2ccc3[nH]cc(O[C@@H]4O[C@H](CO)[C@@H](O)[C@H](O)[C@H]4O)c3c2)nc(N2CCOCC2)n1` [Compound 19, 5-[(4-Methoxy-6-morpholino-1,3,5-triazin-2-yl)oxy]-1H-indole-3-yl β-D-glucopyranoside]?
A: Indigoid dye formation with tritosomes ([1]; result in words): low yield; Yield (%) β-glucosidase from almonds ([2]; indoxyl 1 mM, enzyme 1 unit/mL, 0.01M acetate buffer pH 5, 5% DMF, 37° C., 16-19 h, ϵ = 1.27 × 10^4 M^−1 cm^−1 measured for 4): <1%

Q: Which “Yield (%) rat liver homogenate” value [3] does the source give for `OCCOCCOCCOc1c(Br)cc2[nH]cc(O[C@@H]3O[C@H](CO)[C@@H](O)[C@H](O)[C@H]3O)c2c1Br` [Compound 33, 4,6-Dibromo-5-[1-hydroxy-3,6,9-trioxanon-9-yl]-1H-indol-3-yl β-D-glucopyranoside] here?
A: The value was under 5%.

Q: What about the “Yield of indigoid dye” value ([4]; pH 6-9, 3 h, in words) of the same molecule?
A: The value was “High to quantitative yields”.

Q: And the “Yield of indigoid dye” value ([4]; phosphate buffer pH 4, 3 h)?
A: The value was 6%.

Q: What about the “Yield of indigoid dye” value ([4]; phosphate buffer pH 5, 3 h) of the same molecule?
A: The value was 38%.

Q: What about the “Yield (%) β-glucosidase from Agrobacterium” value [4] of the same molecule?
A: The value was 99%.

Q: What about the “Yield (%) β-glucosidase from Agrobacterium plus rat liver homogenate” value [5] of the same molecule?
A: The value was 81%.

Q: What about the “Isolated yield of indigo 43” value ([2]; 5-mg scale reaction of 33, acetate buffer pH 5.0, 37° C., 22 h) of the same molecule?
A: The value was 66%.

Q: And the “Yield (%) β-glucosidase from almonds” value ([2]; as E1 but ϵ = 2.6 × 10^4 M^−1 cm^−1 measured for 43)?
A: The value was 52% and 52^g %.

Q: Which “Yield (%) β-glucosidase from Agrobacterium” value [4] does the source give for `O=C(NCCOCCOCCNc1nc(OCCOCCOCCOc2c(Br)cc3[nH]cc(O[C@@H]4O[C@H](CO)[C@@H](O)[C@H](O)[C@H]4O)c3c2Br)nc(N2CC[N+](CCCO)(CCCS(=O)(=O)[O-])CC2)n1)OC[C@@H]1[C@@H]2CCC#CCC[C@@H]21` [Compound 41] here?
A: Its value is 106% and 106 ± 4^g %.

Q: And the solubility [6]?
A: Its solubility is over 400 µM.

Q: Which results are given for `OC[C@H]1O[C@@H](Oc2c[nH]c3ccc(Oc4nc(NCCc5ccc(O)cc5)nc(Oc5ccc6[nH]cc(O[C@@H]7O[C@H](CO)[C@@H](O)[C@H](O)[C@H]7O)c6c5)n4)cc23)[C@H](O)[C@@H](O)[C@@H]1O` [Compound F-9, 2,4-Bis[3-(β-D-glucopyranosyloxy)-1H-indol-5-yloxy]-6-[2-(4-hydroxyphenyl)ethylamino]-1,3,5-triazine]?
A: Indigoid dye formation upon treatment with β-glucosidase [7]: did not form the corresponding indigoid dye; Yield of indigoid dye with tritosomes [1]: ca. 4%
